Earlier results in US9842198B2, “Screening method and systems utilizing mass spectral fragmentation patterns” (McMaster University, priority 2012, dated 2017).
*1 amine or outer side, *2 acyl side, *3 side chain or, on linkers, in order; H or OH if unused. Where a SMILES comes first, the peptide text is derived from it. Bridges are numbered along the chain shown (N, C = ends). [ ]: non-standard residue; d: D form. The star is where a group is joined. Cinnamoyl(2-(1Z-pentenyl)) = CCC/C=C\c1ccccc1/C=C/C(=O)*; X1 = CN(/C(=C/c1ccc(O)cc1)C(=O)[*:2])[*:1]; aThr = C[C@H](O)[C@H](N)C(=O)O

Test system: G-protein coupled receptor NK-1
Details: natural ligands are tachykinin peptide hormones such as neurokinin A

For `CCC/C=C\c1ccccc1/C=C/C(=O)N[C@@H]1C(=O)N(C)/C(=C/c2ccc(O)cc2)C(=O)N[C@@H](CC(C)C)C(=O)N[C@H](Cc2ccccc2)C(=O)N[C@@H]([C@H](C)O)C(=O)N[C@@H](CC(N)=O)C(=O)N[C@@H](CO)C(=O)O[C@@H]1C` [WS-9326A] ({Cinnamoyl(2-(1Z-pentenyl))}-T[X1]L[dF][aThr]NS; ester 1-C), the “antagonist activity at NK-1” value is given as “potent antagonist”.
